# Patent US9180159B2, “Use of cell-permeable peptide inhibitors of the JNK signal transduction pathway for the treatment of chronic or non-chronic inflammatory digestive diseases” (Xigen Inflammation Ltd., priority 2008, dated 2015)
# B1: JBD1-280: the GFP vector linked to the entire JBD (aa 1-280) (protein, UniProt Q9UQF2 1-280, looked up, fragment)
# chain: MAERESGGLGGGAASPPAASPFLGLHIASPPNFRLTHDISLEEFEDEDLSEITDECGISLQCKDTLSLRPPRAGLLSAGGGGAGSRLQAEMLQMDLIDATGDTPGAEDDEEDDDEERAARRPGAGPPKAESGQEPASRGQGQSQGQSQGPGSGDTYRPKRPTTLNLFPQVPRSQDTLNNNSLGKKHSWQDRVSRSSSPLKTGEQTPPHEHICLSDELPPQSGPAPTTDRGTSTDSPCRRSTATQMAPPGGPPAAPPGGRGHSHRDRIHYQADVRLEATEE
# modifications: fused to GFP
# Key:
# [1] = system: TC-3 cell cultures; assay: Cellular import and intracellular persistence of fluorescein-labeled peptides in TC-3 cells; format: cell-based; conditions: 1 μM
# Description: The ability of the L- and D-enantiomeric forms of TAT and TAT-IB1(s) peptides (“TAT-IB peptides”) to enter cells was evaluated. L-TAT, D-TAT, L-TAT-IB1(s), and D-TAT-IB1(s) peptides [SEQ ID NOs: 5, 6, 9 and 12, respectively] were labeled by N-terminal addition of a glycine residue conjugated to fluorescein. Labeled peptides (1 μM) were added to TC-3 cell cultures, which were maintained as described in Example 3. At predetermined times cells were washed with PBS and fixed for five minutes in ice-cold methanol-acetone (1:1) before being examined under a fluorescence microscope. Fluorescein-labeled BSA (1 μM, 12 moles/mole BSA) was used as a control.
# Little to no signal was present at 48 hours.
# [2] = system: recombinant JNK1, JNK2 and JNK3; assay: Solid phase kinase assay, phosphorylation of c-Jun, ATF2 and Elk1 by recombinant JNKs; format: biochemical
# Description: (§1) The effects of the peptides on JNKs-mediated phosphorylation of their target transcription factors were investigated in vitro. Recombinant and non activated JNK1, JNK2 and JNK3 were produced using a TRANSCRIPTION AND TRANSLATION rabbit reticulocyte lysate kit (Promega) and used in solid phase kinase assays with c-Jun, ATF2 and Elk1, either alone or fused to glutathione-S-transferase (GST), as substrates. Dose response studies were performed wherein L-TAT or L-TAT-IB1(s) peptides (0-25 μM) were mixed with the recombinant JNK1, JNK2, or JNK3 kinases in reaction buffer (20 mM Tris-acetate, 1 mM EGTA, 10 mM p-nitrophenyl-phosphate (pNPP), 5 mM sodium pyrophosphate, 10 mM p-glycerophosphate, 1 mM dithiothreitol) for 20 minutes. The kinase reactions were then initiated by the addition of 10 mM MgCl2 and 5 pCi ^33P-dATP and 1 μg of either GST-Jun (aa 1-89), GST-AFT2 (aa 1-96) or GST-ELK1 (aa 307-428). GST-fusion proteins were purchased from Stratagene (La Jolla, Calif.).
# (§2) Ten μL of glutathione-agarose beads were also added to the mixture. Reaction products were then separated by SDS-PAGE on a denaturing 10% polyacrylamide gel. Gels were dried and subsequently exposed to X-ray films (Kodak). […] The ability of D-TAT, D-TAT-IB1(s) and L-TAT-IB1(s) peptides (0-250 μM dosage study) to inhibit GST-Jun (aa 1-73) phosphorylation by recombinant JNK1, JNK2, and JNK3 by were analyzed as described above. Overall, D-TAT-IB1(s) peptide decreased JNK-mediated phosphorylation of c-Jun, but at levels approximately 10-20 fold less efficiently than L-TAT-IB1(s).
# [3] = biological target: T1, JNK3 (Homo sapiens, UniProt P53779); assay: Solid phase kinase assay, JNK3 phosphorylation of Elk1; format: biochemical; conditions: dose response 0-25 μM
# T1 construct: host or cells: cell-free: rabbit reticulocyte lysate, in vitro transcription and translation
# T1 sequence (P53779 whole entry, species assumed): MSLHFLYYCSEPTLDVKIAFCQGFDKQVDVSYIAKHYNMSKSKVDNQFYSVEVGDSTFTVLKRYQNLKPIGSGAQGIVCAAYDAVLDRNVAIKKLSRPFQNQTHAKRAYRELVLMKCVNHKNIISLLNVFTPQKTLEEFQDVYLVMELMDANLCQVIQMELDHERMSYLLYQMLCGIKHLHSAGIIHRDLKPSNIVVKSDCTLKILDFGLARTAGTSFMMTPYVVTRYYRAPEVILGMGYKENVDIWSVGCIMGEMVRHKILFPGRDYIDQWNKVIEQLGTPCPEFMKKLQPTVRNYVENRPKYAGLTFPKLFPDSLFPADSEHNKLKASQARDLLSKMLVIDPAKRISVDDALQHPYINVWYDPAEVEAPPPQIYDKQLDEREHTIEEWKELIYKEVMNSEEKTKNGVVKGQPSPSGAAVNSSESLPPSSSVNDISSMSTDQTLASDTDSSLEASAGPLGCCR
# Description: as §1
# as §2, with “Overall, D-TAT-IB1(s) peptide decreased JNK-mediated phosphorylation of c-Jun, but at levels approximately 10-20 fold less efficiently than L-TAT-IB1(s).” left out
# [4] = system: JNKs from UV-light irradiated HeLa cells or IL-1 treated PTC cells; assay: c-Jun phosphorylation by activated JNKs pulled down with GST-Jun from stressed cells; format: biochemical; conditions: 25 μM peptide
# Description: The effects of the L-TAT or L-TAT-IB1(s) peptides as defined herein on JNKs activated by stressful stimuli were evaluated using GST-Jun to pull down JNKs from UV-light irradiated HeLa cells or IL-1 treated PTC cells. PTC cells were cultured as described above. HeLa cells were cultured in DMEM medium supplemented with 10% Fetal Calf Serum, 100 μg/mL Streptomycin, 100 units/ml Penicillin and 2 mM Glutamine. One hour prior to being used for cell extract preparation, PTC cells were activated with IL-1 as described above, whereas HeLa cells were activated by UV-light (20 J/m^2). Cell extracts were prepared from control, UV-light irradiated HeLa cells and IL-1 treated TC-3 cells by scraping the cell cultures in lysis buffer (20 mM Tris-acetate, 1 mM EGTA, 1% Triton X-100, 10 mM p-nitrophenyl-phosphate, 5 mM sodium pyrophosphate, 10 mMP-glycerophosphate, 1 mM dithiothreitol). Debris were removed by centrifugation for five minutes at 15,000 rpm in an SS-34 Beckman rotor. One-hundred μg extracts were incubated for one hour at room temperature with one μg GST-jun (amino acids 1-89) and 10 μL of glutathione-agarose beads (Sigma). Following four washes with the scraping buffer, the beads were resuspended in the same buffer supplemented with L-TAT or L-TAT-IB1(s) peptides (25 μM) for 20 minutes. […]
# [5] = system: JNK mediated activation of c-Jun in HeLa cells; assay: GAL4-Jun luciferase reporter assay in HeLa cells with MKK4/MKK7 co-transfection; format: cell-based; conditions: 1 μM peptide, 16 hours
# Source text: To determine whether the cell-permeable peptides as defined herein could block JNK signaling in vivo, we used a heterologous GAL4 system. HeLa cells, cultured as described above, were co-transfected with the 5×GAL-LUC reporter vector together with the GAL-Jun expression construct (Stratagene) comprising the activation domain of c-Jun (amino acids 1-89) linked to the GAL4 DNA-binding domain. Activation of JNK was achieved by the co-transfection of vectors expressing the directly upstream kinases MKK4 and MKK7 (see Whitmarsh et al, Science 285: 1573 (1999)). Briefly, 3×10^5 cells were transfected with the plasmids in 3.5-cm dishes using DOTAP (Boehringer Mannheim) following instructions from the manufacturer. For experiments involving GAL-Jun, 20 ng of the plasmid was transfected with 1 μg of the reporter plasmid pFR-Luc (Stratagene) and 0.5 μg of either MKK4 or MKK7 expressing plasmids. Three hours following transfection, cell media were changed and TAT and TAT-IB1(s) peptides (1 μM) were added. The luciferase activities were measured 16 hours later using the “Dual Reporter System” from Promega after normalization to protein content. […] Because HeLa cells express JNK1 and JNK2 isoforms but not JNK3, we transfected cells with JNK3.
# [6] = system: TC-3 cells; assay: IL-1 induced pancreatic beta-cell death in TC-3 cells treated with peptides; format: cell-based; conditions: one single addition 1 μM, IL-1 10 ng/ml every two days
# Description: Inhibition of IL-1 induced pancreatic beta-cell death by the D-TAT-IB1(s) peptide was analyzed. TC-3 cells were incubated as described above for 30 minutes with one single addition of the indicated peptides (1, μM), then IL-1 (10 ng/ml) was added.
# Apoptotic cells were then counted after two days of incubation with IL-1 by use of Propidium Iodide and Hoechst 33342 nuclear staining. A minimum of 1,000 cells were counted for each experiment.
# Long term inhibition of IL-1P induced cell-death by the D-TAT-IB1 peptide was also analyzed. TC-3 cells were incubated as above for 30 minutes with one single addition of the indicated peptides (1 μM), then IL-1 (10 ng/ml) was added, followed by addition of the cytokine every two days. Apoptotic cells were then counted after 15 days of incubation with IL-1 by use of propidium iodide and Hoechst 33342 nuclear staining. […] A minimum of 1.000 cells were counted for each experiment.
# [7] = system: AP-1 DNA binding complex; assay: Gel retardation assay with AP-1 probe, HeLa cell nuclear extracts; format: cell-based; conditions: in the presence of TNF-alpha, peptide added 30 minutes before
# [8] = system: Insulin producing TC-3 cells; conditions: previously shown (Ammendrup et al.); cited from earlier work
molecule,measurement,setting,value
NH2-GRKKRRQRRRPPRPKRPTTLNLFPQVPRSQD-COOH (H-GRKKRRQRRRPPRPKRPTTLNLFPQVPRSQD-OH) [L-TAT-IB1(s)],entry into cells,[1],efficiently and rapidly (less than five minutes) entered cells
same,"inhibiting JNK family phosphorylation of their target transcription factors, overall",[2],superior effects
same,"peptide dose at which nearly complete inhibition of c-Jun, ATF2 and Elk1 phosphorylation by JNKs was observed (as low as)",[2]; dose response 0-25 μM,2.5 µM
same,inhibition of JNK3 phosphorylation of Elk1,[3],absence of TAT-IB(s) inhibition
same,prevention of phosphorylation of c-Jun by activated JNKs,[4],efficiently prevented phosphorylation of c-Jun
same,activation of c-Jun following MKK4 and MKK7 mediated activation of JNK (luciferase),[5],blocked activation of c-Jun
same,"long term protection from IL-1 induced cell-death, 15 days",[6],not
same,formation of the AP-1 DNA binding complex,[7],decrease the formation of the AP-1 DNA binding complex
B1,block of IL1 induced pancreatic beta-cell apoptosis by transfection,[8],blocked
